Source: patent US6994868B2, “Compositions useful as inhibitors of ERK” (Vertex Pharmaceuticals Incorporated, priority 2000, dated 2006)

molecular target: activated ERK2 (Homo sapiens, UniProt P28482); test: ERK inhibition assay (spectrophotometric coupled-enzyme assay); type: biochemical; conditions: activated ERK2 10 nM, 65 μM ATP, 200 μM erktide peptide, 30° C., pH 7.5; read-out: ERK2 Inhibitory Activity (Ki class)
Sequence (P28482 whole entry): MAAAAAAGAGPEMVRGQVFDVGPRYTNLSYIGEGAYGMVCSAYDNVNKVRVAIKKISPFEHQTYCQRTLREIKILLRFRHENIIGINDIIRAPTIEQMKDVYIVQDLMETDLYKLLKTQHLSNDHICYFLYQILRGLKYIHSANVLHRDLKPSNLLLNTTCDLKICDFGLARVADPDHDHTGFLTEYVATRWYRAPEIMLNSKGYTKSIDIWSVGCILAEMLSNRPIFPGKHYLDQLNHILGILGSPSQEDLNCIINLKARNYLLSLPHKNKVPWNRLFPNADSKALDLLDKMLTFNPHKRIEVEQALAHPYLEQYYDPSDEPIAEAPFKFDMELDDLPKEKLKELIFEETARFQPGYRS

| Compound | Ki |
| --- | --- |
| COc1ccccc1CNC(=O)c1cc(-c2[nH]ncc2-c2cccc(F)c2)c[nH]1 [II-A-63] | < 1000 nM |
| O=C(NCc1ccncc1)c1cc(-c2[nH]ncc2-c2cccc(F)c2)c[nH]1 [II-A-80] | < 1000 nM |
| O=C(NCc1ccccc1)c1cc(-c2[nH]ncc2-c2cccc(Cl)c2F)c[nH]1 [II-A-82] | < 1000 nM |
| O=C(NCc1ccccc1)c1cc(-c2[nH]ncc2-c2ccc(F)c(F)c2)c[nH]1 [II-A-85] | < 1000 nM |
| O=C(NCc1ccccc1)c1cc(-c2[nH]ncc2-c2cccc(F)c2F)c[nH]1 [II-A-103] | < 1000 nM |
| O=C(c1cc(-c2[nH]ncc2-c2ccccc2)c[nH]1)N1CCCC1 [II-A-134] | 1000 to 5000 nM |
| COc1cccc(-c2cn[nH]c2-c2c[nH]c(C(=O)N3CCCC3)c2)c1 [II-A-144] | 1000 to 5000 nM |
| COc1cccc(-c2cn[nH]c2-c2c[nH]c(C(=O)NCc3cccnc3)c2)c1 [II-A-145] | 1000 to 5000 nM |
| COc1cccc(-c2cn[nH]c2-c2c[nH]c(C(=O)NCc3ccco3)c2)c1 [II-A-147] | 1000 to 5000 nM |
| O=C(NCc1ccco1)c1cc(-c2[nH]ncc2-c2ccccc2)c[nH]1 [II-A-149] | 1000 to 5000 nM |
| O=C(c1cc(-c2[nH]ncc2-c2ccccc2)c[nH]1)N1CCOCC1 [II-A-150] | 1000 to 5000 nM |
| O=C(NCc1cccnc1)c1cc(-c2[nH]ncc2-c2ccccc2)c[nH]1 [II-A-153] | 1000 to 5000 nM |
| COc1cccc(-c2cn[nH]c2-c2c[nH]c(C(=O)N(C)C)c2)c1 [II-A-154] | 1000 to 5000 nM |
| CC(C)NC(=O)c1cc(-c2[nH]ncc2-c2ccccc2)c[nH]1 [II-A-158] | 1000 to 5000 nM |
| COc1cccc(-c2cn[nH]c2-c2c[nH]c(C(=O)N3CCC(C)CC3)c2)c1 [II-A-163] | > 5000 nM |
